Converted amounts (≈) assume the structure as drawn.
What was measured:
MTb patient isolates = format: cell-based, Mycobacterium tuberculosis
MTb H37Rv [1] = tested on: MTb H37Rv
MTb H37Rv [2] = assay: microbe, parasite or virus in culture; conditions: Mycobacterium tuberculosis

CCc1cc(C(N)=S)ccn1 [ETA, ethionamide]
isolates cross-resistant (MTb patient isolates): Eleven of fourteen
susceptibility of isolates without mutations in EtaA, EtaR or promoter regions (MTb patient isolates): fully sensitive
growth of transformants (MTb H37Rv [1]): grew as a lawn at 2.5 and 5 μg/ml ETA
MIC (MTb H37Rv [2]): 2.5 to 5 µg/mL (≈ 15 to 30.1 µM)

CC(C)CCOc1ccc(NC(=S)Nc2ccc(OCCC(C)C)cc2)cc1 [thiocarlide]
isolates cross-resistant (MTb patient isolates): thirteen out of fourteen
